Assay: Compound was evaluated for its stability to dephosphorylation.
Format: physicochemical

Nc1ncnc2c1ncn2[C@@H]1C[C@@H](OCP(=O)(O)OP(=O)(O)O)[C@@H]2C[C@@H]21
half-life: 4.5 h

Nc1nc(O)c2ncn([C@@H]3C=C[C@H](OCP(=O)(O)OP(=O)(O)C(Br)(Br)P(=O)(O)O)C3)c2n1
half-life: > 168 h

Nc1ncnc2c1ncn2[C@H]1C[C@H](O)[C@@H](COP(=O)(O)OP(=O)(O)OP(=O)(O)O)O1
half-life: 0.833 h

Nc1ncnc2c1ncn2[C@H]1C[C@H](OCP(=O)(O)OP(=O)(O)O)[C@H]2C[C@H]21
half-life: > 168 h

Nc1ncnc2c1ncn2[C@@H]1C[C@@H](OCP(=O)(O)CP(=O)(O)O)[C@@H]2C[C@@H]21
half-life: > 168 h

Nc1ncnc2c1ncn2[C@H]1C[C@H](OCP(=O)(O)CP(=O)(O)O)[C@H]2C[C@H]21
half-life: > 168 h

Nc1ncnc2c1ncn2[C@@H]1C=C[C@H](OCP(=O)(O)OP(=O)(O)OP(=O)(O)O)C1
half-life: 3 h

Nc1ncnc2c1ncn2[C@@H]1C=C[C@H](OCP(=O)(O)OP(=O)(O)C(Br)(Br)P(=O)(O)O)C1
half-life: > 168 h

Nc1nc(O)c2ncn([C@@H]3C=C[C@H](OCP(=O)(O)OP(=O)(O)OP(=O)(O)O)C3)c2n1
half-life: 4 h

Nc1ncnc2c1ncn2[C@H]1C=C[C@@H](OCP(=O)(O)OP(=O)(O)OP(=O)(O)O)C1
half-life: 2 h

Nc1nc2c(ncn2[C@H]2C[C@H](O)[C@@H](COP(=O)(O)OP(=O)(O)OP(=O)(O)O)O2)c(=O)[nH]1 [DEOXYGUANOSINE TRIPHOSPHATE]
half-life: 1 h

Cc1cn([C@H]2C[C@H](N=[N+]=[N-])[C@@H](CO[P@](=O)(O)O[P@](=O)(O)OP(=O)(O)O)O2)c(=O)[nH]c1=O [ZIDOVUDINE TRIPHOSPHATE]
half-life: < 0.0167 h

— ChEMBL document CHEMBL1151022, “Modified triphosphates of carbocyclic nucleoside analogues: Synthesis, stability towards alkaline phosphatase and substrate properties for some DNA polymerases” (Bioorg Med Chem Lett, 1996)
